Reference: patent US20220304978A1, “INHIBITING MESANGIAL CELL ACTIVATION” (Chinook Therapeutics, Inc., priority 2019, published 2022)

Test system: kidney tissue of g-ddY mice
Assay: Ingenuity Pathway Analysis (IPA) canonical pathways, g-ddY kidney RNA-seq
Assay type: in vivo, mouse
Conditions: 30 mg/kg/day

CCCCN(CCCC)C(=O)CN1C[C@H](c2ccc3c(c2)OCO3)[C@@H](C(=O)O)[C@@H]1c1ccc(OC)cc1 [atrasentan, (2R,3R,4S)-4-(1,3-benzodioxol-5-yl)-1-[2-(dibutylamino)-2-oxoethyl]-2-(4-methoxyphenyl)pyrrolidine-3-carboxylic acid]
reduced: IL-6 signaling | NF-κB signaling | PDGF signaling
